Paper PMC11554305, “Functional identification of soluble uric acid as an endogenous inhibitor of CD38” (eLife, 2024)
Read-outs that look alike come from different tables or passages of the source.

What was measured:
[1] = Solubility and crystal precipitation in solution; format: physicochemical
Procedure: (§1) Guanosine was dissolved in DMSO and diluted in the reaction buffer for subsequent assays.
MSU crystals were prepared by the recrystallization of oversaturated sUA according to a previous report ([Martinon et al., 2006]). Improper preparation of sUA solution may introduce crystals to cause false-positive or false-negative results. […] In this study, the sUA solution was prepared according to an improved protocol ([Ma et al., 2020]). […] Then, sUA solution was immediately filtered by 0.2 μm filters and diluted to experimental concentration (up to 10 mg/dL, 595 μM) for cell experiments. […]

[2] = test system: CD38; test: Hydrolase and cyclase activities of human and murine CD38; format: biochemical; details: for Effect on CD38 activity: analogs and fragments, 5 to 500 μM, recombinant hCD38, THP-1 cells, WT lung tissues, Figure 2D, E; for Effect on hydrolase and cyclase activities of human and murine CD38: sUA precursors and metabolite, above physiological levels, Figure 2B, C and supplement 1A–C
Procedure: The hydrolase activity of CD38 was measured according to a previous report ([de Oliveira et al., 2018]) with minor modifications. CD38 hydrolase activity was measured using 50 μM ε-NAD^+ as a substrate in hydrolase reaction buffer (250 mM sucrose, 40 mM Tris-HCl, pH 7.4). Briefly, cells or tissues were directly homogenized in blank reaction buffer on ice, and recombinant hCD38 was diluted in blank reaction buffer for subsequent assays. The tissue homogenates were centrifuged to collect the supernatant for enzyme assays. The loading volume of enzyme was 4–30 μL, the total volume of the reaction system was 3 mL. To detect enzyme inhibition, except when specified, the ligands were directly dissolved in hydrolase reaction buffer before pH adjustment, after which, the pH was immediately adjusted to 7.4. All reaction buffers, with or without ligands, were freshly prepared before each assay. For measurement of hydrolase activity, 3 mL reaction buffer containing enzyme, ε-NAD^+, and ligands at indicated concentrations was maintained at 37°C with constant stirring.
The cyclase activity of CD38 was measured as previously described ([Higashida et al., 1999]; [Jin et al., 2007]). CD38 cyclase activity was measured using 60 μM NGD as a substrate in cyclase reaction buffer (100 mM KCl, 10 μM CaCl2, and 50 mM Tris-HCl, pH 6.6). Tissues were cut into pieces and suspended in the buffer (5 mM MgCl2, 10 mM Tris-HCl, pH 7.3) at 4°C for 30 min. Then, the suspension was homogenized on ice, and the supernatant was collected after centrifugation. To collect the crude membrane fractions, the supernatant was centrifuged at 105,000×g for 30 min. The final pellet was resuspended in 10 mM Tris-HCl solution (pH 6.6) for cyclase assay. Homogenates of THP-1 or A549 cells, and recombinant hCD38 were used directly for cyclase assays. The loading volume of enzyme was 4–20 μL, the total volume of reaction system was 3 mL. To detect enzyme inhibition, except when specified, the ligands were directly dissolved in cyclase reaction buffer before pH adjustment, after which, the pH was immediately adjusted to 6.6. All reaction buffers, with or without ligands, were freshly prepared before each assay. For measurement of cyclase activity, 3 mL reaction buffer containing enzyme, NGD, and ligands at indicated concentrations was maintained at 37°C with constant stirring.
The reaction buffer for hydrolase or cyclase assays was excited at 300 nm, and fluorescence emission was measured every second at 410 nm by Shimazu RF-6000 spectrofluorometer. Hydrolase or cyclase activity was calculated from the linear portion of the time course by fitting a linear function to the data points recorded within 5 min.
as §1
For reversibility test, recombinant hCD38 was pre-incubated for 30 min in four conditions: (1) control reaction buffer; (2) in the presence of 100 μM substrate (ε-NAD^+ or NGD); (3) 500 μM sUA; (4) both substrate and sUA. Subsequently, the enzyme was diluted 100-fold in reaction buffer in the presence or absence of 500 μM sUA for activity assays using ε-NAD^+ or NGD. Naïve THP-1 and A549 cells were incubated with RPMI-1640 medium in the presence or absence of 500 μM sUA for 2 hr. The cells were collected and homogenized in the reaction buffer on ice with or without 500 μM sUA, samples were then diluted 100-fold in reaction buffer with or without 500 μM sUA for enzyme assay. Control group was not treated with sUA in all steps; sUA group was treated with sUA in each step; sUA release group was treated with sUA prior to dilution in sUA-free buffer for enzyme assays.

Compound | Effect on hydrolase and cyclase activities of human and murine CD38 [2] | also measured
8-oxoguanine [8-OG, reference compound] | – | Solubility in reaction buffer [1]: limited solubility
O=c1[nH]cc[nH]1 [1,3-DHI-2-one, 1,3-dihydroimidazol-2-one] | – | Effect on CD38 activity [2]: did not affect CD38 activity
Nc1ncnc2c1ncn2[C@@H]1O[C@H](CO)[C@@H](O)[C@H]1O [Adenosine, adenosine] | hardly inhibited | –
NC(=O)NC1NC(=O)NC1=O (stereo not drawn) [Allantoin, allantoin] | hardly inhibited | –
Nc1nc2c(ncn2[C@@H]2O[C@H](CO)[C@@H](O)[C@H]2O)c(=O)[nH]1 [Guanosine, guanosine, reference compound] | hardly inhibited | Solubility in reaction buffer ([1]; tested only at 50 μM): limited solubility
O=c1[nH]cnc2nc[nH]c12 [Hypoxanthine, hypoxanthine] | hardly inhibited | –
O=c1cc[nH]c(=O)[nH]1 [Uracil, uracil] | – | Effect on CD38 activity [2]: did not affect CD38 activity
O=c1[nH]c(=O)c2nc[nH]c2[nH]1 [Xanthine, xanthine] | hardly inhibited | –
